The numbers were not newly measured in US20050191370A1, “Vitamin/metal salt compositions for reducing hair loss and/or promoting hair regrowth” (L'OREAL, priority 2000, published 2005), which cites them from elsewhere.

This series deals with lung cancers in smokers.

For `CC1=C(/C=C/C(C)=C/C=C/C(C)=C/C=C/C=C(C)/C=C/C=C(C)/C=C/C2=C(C)CCCC2(C)C)C(C)(C)CCC1` [beta-carotene], the “decrease in the incidence of lung cancers” value (after 5 years of administration) is “No decrease”. For the same compound, the additional deaths (men who received beta-carotene, population of 29,139 men who were smokers) was 8%. Further, where the note is “men who received beta-carotene, population of 29,139 men who were smokers, Finland”, the “increase in lung cancers” value is given as 18%.
